US9198433B2, “Substituted benzene fungicides” (E I DU PONT DE NEMOURS AND COMPANY, priority 2007, dated 2015)
Marks after values point to notes of the source that are not given here.

Legend:
Assay type in all cases: in vivo
[1] = tested on: Botrytis cinerea; assay: Test F: tomato Botrytis, preventive spray on tomato seedlings, disease rating
Excerpt: (§1) The test compounds were first dissolved in acetone in an amount equal to 3% of the final volume and then suspended at the desired concentration (in ppm) in acetone and purified water (50/50 mix) containing 250 ppm of the surfactant Trem® 014 (polyhydric alcohol esters). The resulting test suspensions were then used in Tests A-L. Spraying a 200 ppm test suspension to the point of run-off on the test plants was the equivalent of an application rate of 500 g/ha. The test suspension was sprayed to the point of run-off on tomato seedlings. […] A dash (-) indicates no test results. All results are for 200 ppm except where followed by an “*”, which indicates 40 ppm or “**”, which indicates 50 ppm.

[2] = tested on: Alternaria solani; assay: Test H: tomato early blight, preventive spray on tomato seedlings, disease rating
Excerpt: as §1

[3] = tested on: Septoria tritici; assay: Test D: wheat leaf blotch, preventive spray on wheat seedlings, disease rating
Excerpt: The test compounds were first dissolved in acetone in an amount equal to 3% of the final volume and then suspended at the desired concentration (in ppm) in acetone and purified water (50/50 mix) containing 250 ppm of the surfactant Trem® 014 (polyhydric alcohol esters). The resulting test suspensions were then used in Tests A-L. Spraying a 200 ppm test suspension to the point of run-off on the test plants was the equivalent of an application rate of 500 g/ha. The test suspension was sprayed to the point of run-off on wheat seedlings. The following day the seedlings were inoculated with a spore suspension of Septoria tritici (the causal agent of wheat leaf blotch) and incubated in a saturated atmosphere at 24° C. for 48 h, and then moved to a growth chamber at 20° C. for 19 days, after which time disease ratings were made. […] A dash (-) indicates no test results. All results are for 200 ppm except where followed by an “*”, which indicates 40 ppm or “**”, which indicates 50 ppm.

[4] = tested on: Septoria nodorum; assay: Test C: wheat glume blotch, preventive spray on wheat seedlings, disease rating
Excerpt: (§2) The test compounds were first dissolved in acetone in an amount equal to 3% of the final volume and then suspended at the desired concentration (in ppm) in acetone and purified water (50/50 mix) containing 250 ppm of the surfactant Trem® 014 (polyhydric alcohol esters). The resulting test suspensions were then used in Tests A-L. Spraying a 200 ppm test suspension to the point of run-off on the test plants was the equivalent of an application rate of 500 g/ha. The test suspension was sprayed to the point of run-off on wheat seedlings. […] A dash (-) indicates no test results. All results are for 200 ppm except where followed by an “*”, which indicates 40 ppm or “**”, which indicates 50 ppm.

[5] = tested on: Erysiphe graminis f. sp. tritici; assay: Test A: wheat powdery mildew, preventive spray on wheat seedlings, disease rating
Excerpt: as §2

[6] = tested on: Puccinia recondita f. sp. tritici; assay: Test B: wheat leaf rust, preventive spray on wheat seedlings, disease rating
Excerpt: as §2

[7] = 200 ppm, 100 = 100% disease control, 0 = no control relative to controls
[8] = 40 ppm (*), 100 = 100% disease control, 0 = no control relative to controls

Row | Compound | Percentage Disease Control, Test F ([1]; 200 ppm) [%] | Percentage Disease Control, Test C ([4]; 40 ppm (*)) | Percentage Disease Control, Test B ([6]; 40 ppm (*)) | Percentage Disease Control, Test F ([1]; 40 ppm (*)) | Percentage Disease Control, Test H ([2]; 40 ppm (*)) | Percentage Disease Control, Test D ([3]; 40 ppm (*)) | Percentage Disease Control, Test A ([5]; 40 ppm (*)) | further results
1 | COC(=O)NCc1cc(-c2ccn(-c3nc(OC)ns3)n2)ccc1Cl [Cmpd 92] | 0 | 92* % | 97* % | – | – | – | – | Percentage Disease Control, Test H ([2]; 200 ppm): 15%; Percentage Disease Control, Test D ([3]; 200 ppm): 72%; Percentage Disease Control, Test A ([5]; 200 ppm): 82%
2 | COC(=O)NCc1cc(-c2ccn(Cc3cccc(C#N)c3)n2)ccc1Cl [Cmpd 75] | – | 40* % | 93* % | 20* % | 61* % | 91* % | 72* % | –
3 | COC(=O)NCc1cc(-c2ccn(-c3nccc(C(F)(F)F)n3)n2)ccc1Cl [Cmpd 87] | – | 97* % | 100* % | 0* % | 9* % | 99* % | 82* % | –
4 | COC(=O)NCc1cc(-c2ccn(-c3nc(SCc4ccccc4)ns3)n2)ccc1Cl [Cmpd 91] | 0 | – | – | – | – | – | – | Percentage Disease Control, Test H ([2]; 200 ppm): 33%; Percentage Disease Control, Test D ([3]; 200 ppm): 97%; Percentage Disease Control, Test C ([4]; 200 ppm): 64%; Percentage Disease Control, Test A ([5]; 200 ppm): 0%; Percentage Disease Control, Test B ([6]; 200 ppm): 85%
5 | COC(=O)NCc1cc(-c2ccn(-c3ccc(Cl)c(C(F)(F)F)c3)n2)ccc1Cl [Cmpd 88] | – | 100* % | 97* % | 0* % | 0* % | 100* % | 95* % | –
6 | COC(=O)NCc1cc(-c2ccn(Cc3ccccc3)n2)ccc1Cl [Cmpd 57] | – | 87* % | 100* % | 0* % | 96* % | 100* % | 97* % | –
7 | COC(=O)NCc1cc(-c2ccn(Cc3ccccc3C(F)(F)F)n2)ccc1Cl [Cmpd 62] | – | 100* % | 99* % | 0* % | 0* % | 100* % | 99* % | –
8 | COC(=O)NCc1cc(-c2ccn(Cc3cccc([N+](=O)[O-])c3)n2)ccc1Cl [Cmpd 73] | – | 96* % | 98* % | 95* % | 14* % | 98* % | 74* % | –
9 | COC(=O)NCc1cc(-c2ccn(-c3ccccc3Cl)n2)ccc1Cl [Cmpd 52] | 99 | 100* % | 100* % | – | – | 100* % | 100* % | Percentage Disease Control, Test H ([2]; 200 ppm): 92%
10 | COC(=O)NCc1cc(-c2ccnc(-c3cccc(C)c3)n2)ccc1Cl [Cmpd 133] | – | – | – | – | – | – | – | Percentage Disease Control, Test F [1, 7]: 0%; Percentage Disease Control, Test H [2, 7]: 0%; Percentage Disease Control, Test D [3, 8]: 92* %; Percentage Disease Control, Test C [4, 7]: 93%; Percentage Disease Control, Test A [5, 7]: 94%; Percentage Disease Control, Test B [6, 7]: 93%
11 | COC(=O)NCc1cc(-c2ccn(Cc3cccc(Cl)c3)n2)ccc1Cl [Cmpd 60] | – | 99* % | 99* % | 0* % | 24* % | 99* % | 98* % | –
12 | COC(=O)NCc1cc(-c2cnn(Cc3ccc(C)cc3)n2)ccc1Cl [Compound 146] | – | – | – | – | – | – | – | Percentage Disease Control, Test F [1, 7]: 0%; Percentage Disease Control, Test H [2, 7]: 22%; Percentage Disease Control, Test D [3, 7]: 93%; Percentage Disease Control, Test C [4, 7]: 99%; Percentage Disease Control, Test A [5, 7]: 52%; Percentage Disease Control, Test B [6, 7]: 93%
13 | COC(=O)NCc1cc(-c2ccnc(-c3ccc(C)cc3)n2)ccc1Cl [Cmpd 132] | – | – | – | – | – | – | – | Percentage Disease Control, Test F [1, 7]: 0%; Percentage Disease Control, Test H [2, 7]: 0%; Percentage Disease Control, Test D [3, 8]: 100* %; Percentage Disease Control, Test C [4, 8]: 98* %; Percentage Disease Control, Test A [5, 7]: 80%; Percentage Disease Control, Test B [6, 8]: 95* %
14 | COC(=O)NCc1cc(-c2ccn(-c3ccc(C(C)C)cc3)n2)ccc1Cl [Cmpd 110] | – | 100* % | 100* % | 96* % | – | 97* % | 100* % | Percentage Disease Control, Test H ([2]; 200 ppm): 85%
15 | COC(=O)NCc1cc(-n2ccc(-c3ccc(Br)cc3)n2)ccc1Cl [Cmpd 124] | 0 | 100* % | 100* % | – | 99* % | 100* % | 100* % | –
16 | COC(=O)NCc1cc(-c2ccn(-c3ccc(C(C)=O)cc3)n2)ccc1Cl [Cmpd 150] | – | – | – | – | – | – | – | Percentage Disease Control, Test F [1, 7]: 0%; Percentage Disease Control, Test H [2, 7]: 92%; Percentage Disease Control, Test D [3, 7]: 99%; Percentage Disease Control, Test C [4, 7]: 100%; Percentage Disease Control, Test A [5, 7]: 71%; Percentage Disease Control, Test B [6, 7]: 98%
17 | COC(=O)NCc1cc(-c2ccn(-c3cccc(OC)c3)n2)ccc1Cl [Cmpd 107] | 89 | 100* % | 100* % | – | 99* % | 99* % | 100* % | –
18 | COC(=O)NCc1cc(-c2ccn(-c3cc(C(F)(F)F)cc(C(F)(F)F)c3)n2)ccc1Cl [Cmpd 78] | – | 0* % | 85* % | 33* % | 0* % | 90* % | 100* % | –
19 | CON=C(C(=O)OC)c1cc(-c2ccn(-c3cccc(C(F)(F)F)c3)n2)ccc1C [Cmpd 84] | 67 | – | – | – | – | 99* % | 98* % | Percentage Disease Control, Test H ([2]; 200 ppm): 54%; Percentage Disease Control, Test C ([4]; 200 ppm): 92%; Percentage Disease Control, Test B ([6]; 200 ppm): 80%
20 | COC(=O)NCc1cc(C(C)=NOC[Si](C)(C)Cc2ccccc2)ccc1Cl [Compound 17] | 0 | – | 99* % | – | – | 100* % | – | Percentage Disease Control, Test H ([2]; 200 ppm): 38%; Percentage Disease Control, Test C ([4]; 200 ppm): 100%; Percentage Disease Control, Test A ([5]; 200 ppm): 67%
21 | COC(=O)NCc1cc(-c2ccn(-c3ccc(Cl)cc3)n2)ccc1Cl [Cmpd 74] | – | 100* % | 100* % | 51* % | 99* % | 100* % | 100* % | –
22 | COC(=O)NCc1cc(-c2ccn(-c3cccc(C)c3)n2)ccc1Cl [Cmpd 81] | – | 100* % | 99* % | 81* % | 97* % | 99* % | 85* % | –
23 | COC(=O)NCc1cc(-c2ccn(Cc3ccc(C(F)(F)F)cc3)n2)ccc1Cl [Cmpd 63] | – | 99* % | 100* % | 0* % | 98* % | 100* % | 97* % | –
24 | COC(=O)NCc1cc(-c2ccn(-c3ccc(C#N)cc3)n2)ccc1Cl [Cmpd 114] | 0 | – | – | – | – | – | – | Percentage Disease Control, Test H ([2]; 200 ppm): 0%; Percentage Disease Control, Test D ([3]; 200 ppm): 100%; Percentage Disease Control, Test C ([4]; 200 ppm): 100%; Percentage Disease Control, Test A ([5]; 200 ppm): 93%; Percentage Disease Control, Test B ([6]; 200 ppm): 99%
25 | COC(=O)NCc1cc(-c2ccn(-c3ccc(OC)cc3)n2)ccc1Cl [Cmpd 106] | 0 | 100* % | 100* % | – | 92* % | 100* % | 98* % | –
